{"source": "ChEMBL document CHEMBL4433219", "about": "“EC18 as a Tool To Understand the Role of HCN4 Channels in Mediating Hyperpolarization-Activated Current in Tissues” (ACS Med Chem Lett, 2019)", "key": {"[1]": {"assay": "Negative chronotropic activity at HCN4 in guinea-pig spontaneously beating isolated atria", "conditions": "Cavia porcellus"}, "Mus musculus [2]": {"species_on_record": "Mus musculus", "assay": "Effect on voltage-dependent K+ channel in C57BL/6J mouse thalamocortical relay neuron assessed as inhibition of step depolarization-induced K+ outward current at 10 uM by whole cell patch clamp assay relative to control"}, "[3]": {"system": "Cardiac muscle of left ventricle", "assay": "(§1) Effect on cardiac electrophysiological profile in Mongrel perfused dog heart left ventricular muscle stimulated at basic cycle length of 1000 milliseconds assessed as action potential time duration at 50% of repolarization at 1 uM measured after 25 mins by glass capillary microelectrode based electrophysiology assay (reference value: 176 +/- 16.36 milliseconds)", "assay_type": "functional, Canis lupus familiaris"}, "[4]": {"target": "T1, Potassium/sodium hyperpolarization-activated cyclic nucleotide-gated channel 4 (Homo sapiens) (UniProt Q9Y3Q4)", "T1 sequence (whole entry)": "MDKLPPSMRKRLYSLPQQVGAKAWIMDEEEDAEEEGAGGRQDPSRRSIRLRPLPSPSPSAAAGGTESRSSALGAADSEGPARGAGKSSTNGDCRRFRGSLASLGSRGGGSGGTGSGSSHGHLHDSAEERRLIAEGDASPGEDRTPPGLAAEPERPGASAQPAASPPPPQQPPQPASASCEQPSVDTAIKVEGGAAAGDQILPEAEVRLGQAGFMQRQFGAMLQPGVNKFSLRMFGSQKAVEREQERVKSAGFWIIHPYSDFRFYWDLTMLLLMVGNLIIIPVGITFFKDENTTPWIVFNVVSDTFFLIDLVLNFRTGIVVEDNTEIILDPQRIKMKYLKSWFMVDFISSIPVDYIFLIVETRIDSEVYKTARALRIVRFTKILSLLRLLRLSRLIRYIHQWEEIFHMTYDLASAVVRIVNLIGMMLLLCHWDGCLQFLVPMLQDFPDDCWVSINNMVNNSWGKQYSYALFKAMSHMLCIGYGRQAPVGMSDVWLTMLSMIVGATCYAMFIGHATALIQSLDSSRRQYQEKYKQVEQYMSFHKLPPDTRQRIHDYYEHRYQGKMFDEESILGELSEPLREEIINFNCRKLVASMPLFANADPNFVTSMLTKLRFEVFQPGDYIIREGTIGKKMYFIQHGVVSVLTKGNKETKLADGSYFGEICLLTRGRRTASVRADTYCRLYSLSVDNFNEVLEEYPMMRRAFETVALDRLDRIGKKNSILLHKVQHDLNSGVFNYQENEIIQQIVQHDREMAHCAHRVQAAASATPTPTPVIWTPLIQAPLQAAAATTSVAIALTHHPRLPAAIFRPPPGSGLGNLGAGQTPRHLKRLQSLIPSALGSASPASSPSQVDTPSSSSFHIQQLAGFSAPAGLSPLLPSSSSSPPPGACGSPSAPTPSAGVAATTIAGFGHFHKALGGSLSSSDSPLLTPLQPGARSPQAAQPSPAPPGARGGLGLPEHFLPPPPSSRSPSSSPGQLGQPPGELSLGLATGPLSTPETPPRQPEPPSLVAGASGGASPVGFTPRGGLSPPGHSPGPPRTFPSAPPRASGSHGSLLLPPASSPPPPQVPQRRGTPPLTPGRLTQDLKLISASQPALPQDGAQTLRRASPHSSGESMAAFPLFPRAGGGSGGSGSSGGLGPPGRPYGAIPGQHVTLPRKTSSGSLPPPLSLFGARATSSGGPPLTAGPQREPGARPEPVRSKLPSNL", "assay": "Inhibition of human HCN4 expressed in HEK293 cells assessed as reduction in hyperpolarization activated current at 5 uM at holding potential of -80 mV by patch clamp assay relative to control", "assay_type": "cell-based"}, "[5]": {"system": "Cardiac muscle of left ventricle", "assay": "as §1, with “90%” for “50%”, “212.5” for “176”, “16.25” for “16.36”", "assay_type": "functional, Canis lupus familiaris"}, "Mus musculus [6]": {"species_on_record": "Mus musculus", "assay": "Effect on transient A type potassium channel in C57BL/6J mouse thalamocortical relay neuron assessed as effect on early transient current at 10 uM by whole cell patch clamp assay relative to control"}, "[7]": {"system": "Cardiac muscle of left ventricle", "assay": "as §1, with “maximum diastolic” for “action”, “potential” for “potential time duration at 50% of repolarization”, “-83.8” for “176”, “2.28 mV)” for “16.36 milliseconds)”", "assay_type": "functional, Canis lupus familiaris"}, "[8]": {"system": "Cardiac muscle of left ventricle", "assay": "as §1, with “at 25%” for “at 50%”, “at 10” for “at 1”, “value: 131.7” for “value: 176”, “+/- 13.1” for “+/- 16.36”", "assay_type": "functional, Canis lupus familiaris"}, "[9]": {"system": "Cardiac muscle of left ventricle", "assay": "as §1, with “25%” for “50%”, “131.7” for “176”, “13.1” for “16.36”", "assay_type": "functional, Canis lupus familiaris"}, "[10]": {"assay": "Selectivity ratio of EC50 for human HCN2 to EC50 for mouse HCN4"}, "[11]": {"system": "Cardiac muscle of left ventricle", "assay": "as §1, with “conduction” for “action potential”, “time” for “time duration”, “10” for “50% of repolarization at 1”, “4.8” for “176”, “0.60” for “16.36”", "assay_type": "functional, Canis lupus familiaris"}, "[12]": {"system": "Cardiac muscle of left ventricle", "assay": "as §1, with “amplitude” for “time duration”, “10” for “50% of repolarization at 1”, “104.1” for “176”, “2.7 mV)” for “16.36 milliseconds)”", "assay_type": "functional, Canis lupus familiaris"}, "[13]": {"target": "T2, Potassium/sodium hyperpolarization-activated cyclic nucleotide-gated channel 4 (Homo sapiens, UniProt Q9Y3Q4)", "T2 sequence (Q9Y3Q4 whole entry)": "T1 sequence (whole entry)", "assay": "Inhibition of human HCN4 expressed in HEK293 cells assessed as reduction in hyperpolarization activated current at holding potential of -80 mV by patch clamp assay", "assay_type": "cell-based"}, "[14]": {"system": "Cardiac muscle of left ventricle", "assay": "as §1, with “75%” for “50%”, “199.7” for “176”, “16.87” for “16.36”", "assay_type": "functional, Canis lupus familiaris"}, "[15]": {"system": "Cardiac muscle of left ventricle", "assay": "as §1, with “conduction” for “action potential”, “time” for “time duration at 50% of repolarization”, “4.8” for “176”, “0.60” for “16.36”", "assay_type": "functional, Canis lupus familiaris"}, "[16]": {"system": "Cardiac muscle of left ventricle", "assay": "as §1, with “at 10” for “at 1”", "assay_type": "functional, Canis lupus familiaris"}, "[17]": {"target": "Potassium/sodium hyperpolarization-activated cyclic nucleotide-gated channel 1 (Mus musculus, UniProt O88704)", "sequence (O88704 whole entry)": "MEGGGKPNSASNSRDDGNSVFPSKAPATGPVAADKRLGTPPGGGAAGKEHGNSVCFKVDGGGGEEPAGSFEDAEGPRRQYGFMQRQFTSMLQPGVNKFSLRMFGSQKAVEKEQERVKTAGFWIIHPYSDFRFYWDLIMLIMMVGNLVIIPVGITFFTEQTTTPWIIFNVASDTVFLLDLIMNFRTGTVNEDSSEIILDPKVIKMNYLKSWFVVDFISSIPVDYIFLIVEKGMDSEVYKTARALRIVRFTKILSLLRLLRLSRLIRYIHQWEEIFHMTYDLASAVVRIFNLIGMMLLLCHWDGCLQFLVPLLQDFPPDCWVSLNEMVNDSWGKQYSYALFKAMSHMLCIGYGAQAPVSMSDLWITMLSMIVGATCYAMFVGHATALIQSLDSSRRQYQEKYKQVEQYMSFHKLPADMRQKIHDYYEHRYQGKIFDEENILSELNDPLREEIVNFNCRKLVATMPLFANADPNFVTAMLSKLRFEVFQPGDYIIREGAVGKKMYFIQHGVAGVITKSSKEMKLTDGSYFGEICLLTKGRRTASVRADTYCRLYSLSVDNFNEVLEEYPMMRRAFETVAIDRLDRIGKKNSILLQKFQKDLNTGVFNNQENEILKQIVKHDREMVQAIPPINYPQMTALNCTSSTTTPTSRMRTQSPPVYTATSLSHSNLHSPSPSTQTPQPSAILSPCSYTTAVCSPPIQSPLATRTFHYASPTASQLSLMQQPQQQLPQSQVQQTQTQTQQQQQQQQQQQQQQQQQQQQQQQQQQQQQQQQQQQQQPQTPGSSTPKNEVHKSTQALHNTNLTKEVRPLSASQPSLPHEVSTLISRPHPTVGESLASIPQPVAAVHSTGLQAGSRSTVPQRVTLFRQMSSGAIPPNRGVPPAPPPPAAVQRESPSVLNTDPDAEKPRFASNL", "assay": "Inhibition of mouse HCN1 expressed in HEK293 cells assessed as reduction in hyperpolarization activated current at holding potential of -80 mV by patch clamp assay", "assay_type": "cell-based"}}, "note": "Activity calls are given as the source filed them. The rule behind the calls is not given here.", "data": [{"molecule": "COc1ccc(CCN(C)[C@@H]2CCC[C@H](N3CCc4cc(OC)c(OC)cc4CC3=O)C2)cc1OC", "note": "(racemic)", "values": [{"measurement": "IC50", "setting": "[1]", "value": 9.9, "unit": "µM"}, {"measurement": "inhibition", "setting": "Mus musculus [2]", "value": 14.5, "unit": "%"}, {"measurement": "Time", "setting": "[3]", "value": 168.3, "unit": "ms"}, {"measurement": "inhibition", "setting": "[4]", "value": 59, "unit": "%"}, {"measurement": "Time", "setting": "[5]", "value": 204.9, "unit": "ms"}, {"measurement": "Activity", "setting": "Mus musculus [6]", "value": "inactive"}, {"measurement": "Activity", "setting": "[7]", "value": -84, "unit": "mV"}, {"measurement": "Time", "setting": "[8]", "value": 125.1, "unit": "ms"}, {"measurement": "Time", "setting": "[9]", "value": 121.6, "unit": "ms"}, {"measurement": "Ratio EC50", "setting": "[10]", "value": 5}, {"measurement": "Time", "setting": "[11]", "value": 5, "unit": "ms"}, {"measurement": "Activity", "setting": "[12]", "value": 102.3, "unit": "mV"}, {"measurement": "EC50", "setting": "[13]", "value": 3.98, "unit": "µM"}, {"measurement": "Time", "setting": "[14]", "value": 191.9, "unit": "ms"}, {"measurement": "Time", "setting": "[15]", "value": 4.7, "unit": "ms"}, {"measurement": "Time", "setting": "[16]", "value": 179.9, "unit": "ms"}, {"measurement": "EC50", "setting": "[17]", "value": 21, "unit": "µM"}]}]}
